Results on 17 molecules are retold here after ChEMBL document CHEMBL1156863, “Synthesis of 1-(D-glucopyranosyl)-1,2,3-triazoles and their evaluation as glycogen phosphorylase inhibitors” (Bioorg Med Chem, 2010).

Assay [1] has as its target T1, Glycogen phosphorylase, muscle form (Oryctolagus cuniculus, UniProt P00489).
T1 sequence (P00489 whole entry): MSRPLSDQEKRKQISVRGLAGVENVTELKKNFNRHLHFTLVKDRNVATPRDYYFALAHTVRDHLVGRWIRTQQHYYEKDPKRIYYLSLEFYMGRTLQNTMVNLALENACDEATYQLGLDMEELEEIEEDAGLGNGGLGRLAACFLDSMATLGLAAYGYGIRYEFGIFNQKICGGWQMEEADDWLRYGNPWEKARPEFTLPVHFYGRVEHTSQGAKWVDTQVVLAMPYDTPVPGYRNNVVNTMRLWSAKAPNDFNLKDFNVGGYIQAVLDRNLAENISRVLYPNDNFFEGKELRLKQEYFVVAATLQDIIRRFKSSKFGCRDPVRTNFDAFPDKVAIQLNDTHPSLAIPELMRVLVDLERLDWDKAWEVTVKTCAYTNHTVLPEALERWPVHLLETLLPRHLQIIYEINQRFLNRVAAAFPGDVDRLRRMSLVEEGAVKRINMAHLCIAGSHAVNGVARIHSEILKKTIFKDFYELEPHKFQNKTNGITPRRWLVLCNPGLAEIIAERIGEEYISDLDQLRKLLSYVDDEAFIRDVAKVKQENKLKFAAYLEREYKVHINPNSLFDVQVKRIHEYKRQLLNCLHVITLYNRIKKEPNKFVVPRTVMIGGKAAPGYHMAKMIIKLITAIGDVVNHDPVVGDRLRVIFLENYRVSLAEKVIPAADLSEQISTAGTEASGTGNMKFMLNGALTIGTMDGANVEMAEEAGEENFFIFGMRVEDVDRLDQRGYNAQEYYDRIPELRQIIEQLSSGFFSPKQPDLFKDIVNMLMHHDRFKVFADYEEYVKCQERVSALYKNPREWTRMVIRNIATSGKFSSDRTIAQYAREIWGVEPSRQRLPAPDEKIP
Kind of assay: Inhibition of rabbit skeletal muscle glycogen phosphorylase b by Dixon plot.

The target of assay [2] is T1, Glycogen phosphorylase, muscle form. Nature of the assay: Inhibition of rabbit skeletal muscle glycogen phosphorylase b by Lineweaver-Burke plot analysis.
Assay [3] has the same target.

What is called Ki is the dissociation constant of the complex between target and ligand, obtained from inhibition or displacement. The term IC50 denotes the point on the concentration scale where inhibition reaches its midpoint. Low values mean inhibition by little substance, high ones a need for much substance.

`OCc1cn([C@@H]2O[C@H](CO)[C@@H](O)[C@H](O)[C@H]2O)nn1`: the Ki in assay [1] was 26 µM. As for `NC(=O)[C@@]1(n2cc(-c3ccc4ccccc4c3)nn2)O[C@H](CO)[C@@H](O)[C@H](O)[C@H]1O`, in assay [2], the IC50 was 780 µM. In the case of `NC(=O)[C@H]1O[C@H](CO)[C@@H](O)[C@H](O)[C@H]1O`, in assay [3], the affinity corresponds to a Ki of 370 µM.

As for `O=C(Cc1ccccc1)N[C@@H]1O[C@H](CO)[C@@H](O)[C@H](O)[C@H]1O`, in assay [3], the Ki was 1100 µM. Against the preceding molecule, the Ki is about 3-fold higher. In assay [2], `NOC(=O)c1cn([C@@H]2O[C@H](CO)[C@@H](O)[C@H](O)[C@H]2O)nn1` registered an IC50 of 350 µM. The molecule `O=C(NC1O[C@H](CO)[C@@H](O)[C@H](O)[C@H]1O)c1ccccc1` (single isomer, unassigned) displayed a Ki in assay [3] of 144 µM. `OC[C@H]1O[C@@H](n2cc(-c3ccccc3)nn2)[C@H](O)[C@@H](O)[C@@H]1O` displayed a Ki in assay [1] of 162 µM.

With `CC(=O)N[C@]1(C(N)=O)O[C@H](CO)[C@@H](O)[C@H](O)[C@H]1O`, the Ki in assay [3] was 310 µM.

As for `COC(=O)N[C@]1(C(N)=O)O[C@H](CO)[C@@H](O)[C@H](O)[C@H]1O`, the Ki in assay [3] and in assay [1] was 16 µM throughout. `O=C(CO)N[C@@H]1O[C@H](CO)[C@@H](O)[C@H](O)[C@H]1O`: in assay [1], affinity was put at a Ki of 20 µM. Turning to `O=C(O)c1cn([C@H]2O[C@H](CO)[C@@H](O)[C@H](O)[C@H]2O)nn1`, the IC50 in assay [2] was 400 µM. Same read-out and setting: the result for `COC(=O)c1cn([C@@H]2O[C@H](CO)[C@@H](O)[C@H](O)[C@H]2O)nn1` reads 500 µM. In turn, `OC[C@H]1O[C@@H](n2cc(-c3ccc4ccccc4c3)nn2)[C@H](O)[C@@H](O)[C@@H]1O` showed a Ki in assay [1] of 36 µM. This counts as double-digit micromolar.

The molecule `OC[C@H]1O[C@@H](n2cc(Cc3ccccc3)nn2)[C@H](O)[C@@H](O)[C@@H]1O` came in with an IC50 in assay [2] of 600 µM. Same read-out and setting: the result for `OC[C@H]1O[C@@H](n2cc(-c3cccc4ccccc34)nn2)[C@H](O)[C@@H](O)[C@@H]1O` reads 625 µM. In assay [2], `OCc1cn([C@H]2O[C@H](CO)[C@@H](O)[C@H](O)[C@H]2O)nn1` had an IC50 of 670 µM. In the case of `COCC(=O)N[C@@H]1O[C@H](CO)[C@@H](O)[C@H](O)[C@H]1O`, the Ki in assay [3] turned out to be 210 µM.
